Patent US9314024B2, “Herbicidal compositions comprising aminopyralid and bentazon” (Dow AgroSciences LLC, priority 2012, dated 2016)

Legend:
Experiment in all cases: Postemergence herbicidal activity, field trial in rice, Espinal, Colombia
Conditions in all cases: 29 DAA, postemergence foliar
[1] = system: Corchorus spp (jute, CRGSS); assay type: in vivo, Corchorus sp
Method: (§1) These trials were conducted under field conditions in Espinal, Colombia. Trial sites were located in commercially grown fields of common rice (Oryza sativa). The rice crop was grown using normal cultural practices for fertilization, seeding, and maintenance to ensure good growth of the crop and the weeds. The trials were conducted using normal research methodology. Trial plots were 2 meters (m) wide by 5 m long. All treatments were applied using a randomized complete block trial design with 4 replications per treatment. The trial sites had naturally occurring populations of weeds. The weed spectrum included, but was not limited to, Cyperus iria L. (rice flatsedge, CYPIR), Phyllanthus niruri L. (gripeweed, PYLNI) and Corchorus spp (jute, CRGSS). The plots were treated with a postemergence foliar application 19 days after emergence of the rice.
(§2) Treatments consisted of tank mixes of aminopyralid triisopropanolammonium salt (MILESTONE 240SL) and commercially available formulations of bentazon herbicide (BASAGRAN 480SL). The application volume was 200 liters per hectare (L/ha) of water. All application were made using precision gas hand sprayers with a 2 m boom using flat fan (8002) nozzles to broadcast the treatments over the top of the rice and weeds.
(§3) The treated plots and control plots were rated blind at various intervals after application. Ratings were based on Percent (%) Visual weed control, where 0 corresponds to no injury and 100 corresponds to complete kill.
(§4) Colby's equation was used to determine the herbicidal effects expected from the mixtures (Colby, S. R. Calculation of the synergistic and antagonistic response of herbicide combinations. Weeds 1967 15, 20-22).
(§5) The following equation was used to calculate the expected activity of mixtures containing two active ingredients, A and B: Expected=A+B−(A×B/100)
(§6) A=observed efficacy of active ingredient A at the same concentration as used in the mixture;
(§7) B=observed efficacy of active ingredient B at the same concentration as used in the mixture.

[2] = system: Cyperus iria L. (rice flatsedge, CYPIR); assay type: in vivo
Method: as §1, §2, §3, §4, §5, §6, §7

[3] = system: Phyllanthus niruri L. (gripeweed, PYLNI); assay type: in vivo
Method: as §1, §2, §3, §4, §5, §6, §7

Compound | Visual Weed Control (%) CRGSS Obs ([1]; bentazon 180 g ai/ha alone) [%] | Visual Weed Control (%) CYPIR Obs ([2]; bentazon 180 g ai/ha alone) [%] | Visual Weed Control (%) PYLNI Obs ([3]; bentazon 180 g ai/ha alone) [%] | Visual Weed Control (%) CRGSS Obs ([1]; aminopyralid 4 g ae/ha alone) [%] | Visual Weed Control (%) CRGSS Obs ([1]; aminopyralid 8 g ae/ha alone) [%] | Visual Weed Control (%) CYPIR Obs ([2]; aminopyralid 4 g ae/ha alone) [%] | Visual Weed Control (%) CYPIR Obs ([2]; aminopyralid 8 g ae/ha alone) [%] | Visual Weed Control (%) CYPIR Obs ([2]; aminopyralid 16 g ae/ha alone) [%] | Visual Weed Control (%) PYLNI Obs ([3]; aminopyralid 4 g ae/ha alone) [%] | Visual Weed Control (%) PYLNI Obs ([3]; aminopyralid 8 g ae/ha alone) [%] | Visual Weed Control (%) PYLNI Obs ([3]; aminopyralid 16 g ae/ha alone) [%]
CC(C)N1C(=O)c2ccccc2NS1(=O)=O [Bentazon, 3-(1-methylethyl)-1H-2,1,3-benzothiadiazin-4(3H)-one 2,2-dioxide] | 80 | 74 | 19 |  |  |  |  |  |  |  | 
Nc1cc(Cl)nc(C(=O)O)c1Cl [Aminopyralid, 4-amino-3,6-dichloro-2-pyridinecarboxylic acid] |  |  |  | 48 | 70 | 0 | 0 | 41 | 0 | 0 | 0
